Test results from patent US20110166112A1, “METHOD FOR STIMULATING PLATELET PRODUCTION” (Eisai, Inc., priority 2009, published 2011).

Tested on: subjects with chronic idiopathic thrombocytopenic purpura (ITP)
Assay: Phase 2 28-day study of E5501 tablets: safety and tolerability (TEAEs, discontinuations)
Format: in vivo, human
Conditions: for Discontinued study, primary reason Adverse Event or SAE / Discontinued study, primary reason Platelet Count Increase to ≧500 K/mm^3: Pharmacokinetic Population; for Abdominal pain / Diarrhoea / Ecchymosis / Epistaxis / Fatigue / Headache / Migraine / Nausea / Pain in extremity / Petechiae / Platelet count increased / Upper respiratory tract infection / Vomiting: TEAE
Experimental: This was a phase 2, multi-center, double-blind, randomized, placebo-controlled, dose-ranging, parallel group study of E5501 tablets, used in the treatment of subjects with chronic idiopathic thrombocytopenic purpura (ITP) refractory to or relapsed after at least one prior ITP therapy. Subjects who met all entry criteria were randomly assigned in a 3:3:3:3:1 ratio to one of the following five treatment groups dosed daily for 28 days: 1) E5501 2.5 mg; 2) E5501 5 mg; 3) E5501 10 mg; 4) E5501 20 mg; or 5) placebo (PBO). Each E5501 dosing group consisted of 15 subjects while the PBO group consisted of 5 subjects. All study subjects were evaluated weekly (days 7, 14, 21 and 28) for safety and efficacy while receiving study treatment, with a final assessment for safety and effectiveness performed 4 weeks after the last study dose (day 56) unless the subject entered the follow-on study. Platelet counts were also measured on day 3 and day 5.
The safety and tolerability parameters included adverse events, clinical laboratory parameters, study drug exposure, vital electrocardiograms, concomitant medications, serum pregnancy tests for women of childbearing potential and physical examinations including height, weight, general appearance and recording of vital signs.
The populations of interest were defined as follows: • The randomized population included all subjects who were randomized into the study. • The safety population included all randomized subjects who receive at least one dose of study drug and have at least one safety assessment. • The pharmacokinetic (PK) population included all subjects who provided blood sample for analysis of E5501. A subject was included in this population if the subject had at least one blood draw for PK assessment. • The full analysis set (FAS) included all subjects who provided adequate data to derive at least one efficacy assessment. […] The day 28 visit window was defined to be from day 25, to last dose day+1, inclusively; • Other major protocol violations that impacted the platelet endpoint evaluation. Results from Planned Analyses
Subject Disposition. Sixty four subjects were randomly assigned to treatment in this study. All treated subjects provided adequate efficacy data and therefore were included in the FAS population. The number and percentage of subjects who completed treatment or discontinued prematurely were summarized by treatment groups as shown in Table 1. In addition, the number and percentage of subjects who withdrew were summarized by reason for discontinuation by treatment group. The majority (>85%) of subjects completed the study across all dose groups for the FAS, randomized, and safety populations. Seven subjects who discontinued the study early all were from E5501 dose groups: two subjects in each of 2.5, 10 and 20 mg dose groups and one subject in the 5 mg dose group.

For `O=C(Nc1nc(-c2cc(Cl)cs2)c(N2CCN(C3CCCCC3)CC2)s1)c1cnc(N2CCC(C(=O)O)CC2)c(Cl)c1` [E5501, 1-(3-chloro-5-{[4-(4-chlorothiophen-2-yl)-5-(4-cyclohexylpiperazin-1-yl)thiazol-2-yl]carbamoyl}pyridine-2-yl)piperidine-4-carboxylic acid], the “diarrhea, nausea and vomiting, total events” value was 12 events, the “subjects whose platelet count decreased to below that of baseline upon discontinuation of E5501” value was 3 subjects and the “subjects with diarrhea, nausea and vomiting events” value was 7 subjects. The “tolerability and safety profile” value was “well tolerated and had a favorable safety profile”, the Death (2.5 mg) was 0 n (%) and the “Serious TEAEs (Any Serious TEAE)” value (2.5 mg) was 2 (13.3) n (%). For the same compound, the “TEAE Leading to Study Treatment Dose Interruption” value (2.5 mg) was 0 n (%), the “TEAE Leading to Study Treatment Withdrawal” value (2.5 mg) was 0 n (%) and the TEAEs (2.5 mg) was 12 (80.0) n (%). The “Treatment-Related Serious TEAEs” value (2.5 mg) was 0 n (%), the “Treatment-Related TEAEs” value (2.5 mg) was 6 (40.0) n (%) and the “number of serious TEAEs” value (2.5 mg) was 2. For the same compound, the Death (5 mg) was 0 n (%), the “Serious TEAEs (Any Serious TEAE)” value (5 mg) was 0 n (%) and the “TEAE Leading to Study Treatment Dose Interruption” value (5 mg) was 1 (6.7) n (%). The “TEAE Leading to Study Treatment Withdrawal” value (5 mg) was 1 (6.7) n (%), the TEAEs (5 mg) was 13 (86.7) n (%) and the “Treatment-Related Serious TEAEs” value (5 mg) was 0 n (%). The “Treatment-Related TEAEs” value (5 mg) was 11 (73.3) n (%), the Death (10 mg) was 0 n (%) and the “Serious TEAEs (Any Serious TEAE)” value (10 mg) was 1 (7.1) n (%). The “TEAE Leading to Study Treatment Dose Interruption” value (10 mg) was 0 n (%), the “TEAE Leading to Study Treatment Withdrawal” value (10 mg) was 1 (7.1) n (%) and the TEAEs (10 mg) was 11 (78.6) n (%). For the same compound, the “Treatment-Related Serious TEAEs” value (10 mg) was 1 (7.1) n (%), the “Treatment-Related TEAEs” value (10 mg) was 8 (57.1) n (%) and the “number of serious TEAEs” value (10 mg) was 4. For the same compound, the Death (20 mg) was 0 n (%), the “Serious TEAEs (Any Serious TEAE)” value (20 mg) was 0 n (%) and the “TEAE Leading to Study Treatment Dose Interruption” value (20 mg) was 2 (13.3) n (%). The “TEAE Leading to Study Treatment Withdrawal” value (20 mg) was 2 (13.3) n (%), the TEAEs (20 mg) was 14 (93.3) n (%) and the “Treatment-Related Serious TEAEs” value (20 mg) was 0 n (%). The “Treatment-Related TEAEs” value (20 mg) was 10 (66.7) n (%), the “subjects who withdrew due to excessively increased platelet counts (≧500,000/mm^3)” value (20 mg) was 2 subjects and the “Discontinued study, primary reason Adverse Event or SAE” value (2.5 mg) was 0 n (%). For the same compound, the “Discontinued study, primary reason Platelet Count Increase to ≧500 K/mm^3” value (2.5 mg) was 0 n (%), the “Discontinued study, primary reason Adverse Event or SAE” value (5 mg) was 1 (6.7) n (%) and the “Discontinued study, primary reason Platelet Count Increase to ≧500 K/mm^3” value (5 mg) was 0 n (%). The “Discontinued study, primary reason Adverse Event or SAE” value (10 mg) was 1 (7.1) n (%), the “Discontinued study, primary reason Platelet Count Increase to ≧500 K/mm^3” value (10 mg) was 0 n (%) and the “Discontinued study, primary reason Adverse Event or SAE” value (20 mg) was 0 n (%). The “Discontinued study, primary reason Platelet Count Increase to ≧500 K/mm^3” value (20 mg) was 2 (13.3) n (%), the “Discontinued study, primary reason Adverse Event or SAE” value (Total E5501) was 2 (3.4) n (%) and the “Discontinued study, primary reason Platelet Count Increase to ≧500 K/mm^3” value (Total E5501) was 2 (3.4) n (%). The Abdominal pain (2.5 mg) was 0 n (%), the Diarrhoea (2.5 mg) was 1 (6.7) n (%) and the Ecchymosis (2.5 mg) was 0 n (%). For the same compound, the Epistaxis (2.5 mg) was 4 (26.7) n (%), the Fatigue (2.5 mg) was 2 (13.3) n (%) and the Headache (2.5 mg) was 4 (26.7) n (%). For the same compound, the Migraine (2.5 mg) was 0 n (%), the Nausea (2.5 mg) was 0 n (%) and the Pain in extremity (2.5 mg) was 0 n (%). For the same compound, the Petechiae (2.5 mg) was 0 n (%), the Platelet count increased (2.5 mg) was 0 n (%) and the “Upper respiratory tract infection” value (2.5 mg) was 1 (6.7) n (%). For the same compound, the Vomiting (2.5 mg) was 1 (6.7) n (%), the Abdominal pain (5 mg) was 2 (13.3) n (%) and the Diarrhoea (5 mg) was 2 (13.3) n (%). The Ecchymosis (5 mg) was 0 n (%), the Epistaxis (5 mg) was 2 (13.3) n (%) and the Fatigue (5 mg) was 4 (26.7) n (%). For the same compound, the Headache (5 mg) was 3 (20.0) n (%), the Migraine (5 mg) was 0 n (%) and the Nausea (5 mg) was 0 n (%). For the same compound, the Pain in extremity (5 mg) was 2 (13.3) n (%), the Petechiae (5 mg) was 0 n (%) and the Platelet count increased (5 mg) was 0 n (%). For the same compound, the “Upper respiratory tract infection” value (5 mg) was 0 n (%), the Vomiting (5 mg) was 0 n (%) and the Abdominal pain (10 mg) was 0 n (%). For the same compound, the Diarrhoea (10 mg) was 0 n (%), the Ecchymosis (10 mg) was 3 (21.4) n (%) and the Epistaxis (10 mg) was 1 (7.1) n (%). For the same compound, the Fatigue (10 mg) was 4 (28.6) n (%), the Headache (10 mg) was 1 (7.1) n (%) and the Migraine (10 mg) was 0 n (%). The Nausea (10 mg) was 2 (14.3) n (%), the Pain in extremity (10 mg) was 0 n (%) and the Petechiae (10 mg) was 0 n (%). For the same compound, the Platelet count increased (10 mg) was 0 n (%), the “Upper respiratory tract infection” value (10 mg) was 2 (14.3) n (%) and the Vomiting (10 mg) was 1 (7.1) n (%). For the same compound, the Abdominal pain (20 mg) was 0 n (%), the Diarrhoea (20 mg) was 2 (13.3) n (%) and the Ecchymosis (20 mg) was 0 n (%). For the same compound, the Epistaxis (20 mg) was 2 (13.3) n (%), the Fatigue (20 mg) was 2 (13.3) n (%) and the Headache (20 mg) was 4 (26.7) n (%). The Migraine (20 mg) was 2 (13.3) n (%), the Nausea (20 mg) was 1 (6.7) n (%) and the Pain in extremity (20 mg) was 1 (6.7) n (%). The Petechiae (20 mg) was 2 (13.3) n (%), the Platelet count increased (20 mg) was 4 (26.7) n (%) and the “Upper respiratory tract infection” value (20 mg) was 0 n (%). For the same compound, the Vomiting (20 mg) was 2 (13.3) n (%) and the Abdominal pain (Total E5501) was 2 (3.4) n (%).
